Experimental data reported in patent publication EP0428423A2, “Aryloxy alkyl benzenes, processes for their preparation and pharmaceutical compositions containing them” (LIPHA S.A., priority 1989, dated 1991).
pIC50: −log10 of the molar value.

What was measured:
RAT = assay: Diuretic activity in the rat (hourly urine volume, sodium and potassium assay); type: in vivo; conditions: po; R = RAT; diuretic activity; read-out: Dose minimale active
Description: (§1) d'urine sont déterminés toutes les heures. Le dosage de sodium et du potassium est effectué par spectrophotométrie.

SOURIS = assay: Diuretic activity in the mouse (hourly urine volume, sodium and potassium assay); type: in vivo; conditions: Mus musculus, po; S = SOURIS; diuretic activity; read-out: Dose minimale active
Description: as §1

[1] = test system: rats mâles SHR (souche OKAMOTO); assay: Antihypertensive action in the non-anaesthetised SHR rat (systolic blood pressure, sphygmomanometric method); type: in vivo; conditions: A = Aigu, 100 mg/kg PO, 24 h after dosing
Description: L'étude a été effectuée sur des lots de rats mâles SHR (souche OKAMOTO) âgés de 16 semaines. La pression artérielle systolique est déterminée par la méthode sphygmomanométrique (électro sphygmogra- phe NARCO biosystems type PE 300). Les mesures de tension sont réalisées 24 heures après administration d'un composé de formule générale I, la pression artérielle systolique est calculée à partir de la moyenne de 6 à 8 mesures.

[2] = test system: plasmas riches en plaquettes provenant de sang de rat; assay: Platelet anti-aggregation in vitro, ADP-induced (Born aggregometer); type: cell-based; conditions: in vitro, aggregating agent ADP, rat platelet-rich plasma, 37°; M not defined in the text; mM printed only in the TICLOPIDINE line
Method: Les études ont été réalisées sur des plasmas riches en plaquettes provenant de sang de rat, l'agrégation étant induite par addition d'acide Adénosine diphosphorique. Les courbes néphélométriques d'agrégation sont obtenues en utilisant un agrégomètre de type BORN, le plasma étant placé en incubation à 37° avec agitation continue de 1100 t/mn (cf. BORN G.V.R et CROSS J. - J. Physiol. 168 (1962) 178.

ECHANGEUR D'ANIONS = target: T1, ECHANGEUR D'ANIONS (Homo sapiens, UniProt P02730); assay: Anion exchanger of human erythrocytes; type: cell-based, ERYTHROCYTES HUMAINS; conditions: read-out: EFFET SUR L'ECHANGEUR D'ANIONS IC 50
T1 construct: systèmes de transport du sodium et du potassium des érythrocytes humains; endogenous in cells; host or cells: human erythrocytes
T1 sequence (P02730 1-911): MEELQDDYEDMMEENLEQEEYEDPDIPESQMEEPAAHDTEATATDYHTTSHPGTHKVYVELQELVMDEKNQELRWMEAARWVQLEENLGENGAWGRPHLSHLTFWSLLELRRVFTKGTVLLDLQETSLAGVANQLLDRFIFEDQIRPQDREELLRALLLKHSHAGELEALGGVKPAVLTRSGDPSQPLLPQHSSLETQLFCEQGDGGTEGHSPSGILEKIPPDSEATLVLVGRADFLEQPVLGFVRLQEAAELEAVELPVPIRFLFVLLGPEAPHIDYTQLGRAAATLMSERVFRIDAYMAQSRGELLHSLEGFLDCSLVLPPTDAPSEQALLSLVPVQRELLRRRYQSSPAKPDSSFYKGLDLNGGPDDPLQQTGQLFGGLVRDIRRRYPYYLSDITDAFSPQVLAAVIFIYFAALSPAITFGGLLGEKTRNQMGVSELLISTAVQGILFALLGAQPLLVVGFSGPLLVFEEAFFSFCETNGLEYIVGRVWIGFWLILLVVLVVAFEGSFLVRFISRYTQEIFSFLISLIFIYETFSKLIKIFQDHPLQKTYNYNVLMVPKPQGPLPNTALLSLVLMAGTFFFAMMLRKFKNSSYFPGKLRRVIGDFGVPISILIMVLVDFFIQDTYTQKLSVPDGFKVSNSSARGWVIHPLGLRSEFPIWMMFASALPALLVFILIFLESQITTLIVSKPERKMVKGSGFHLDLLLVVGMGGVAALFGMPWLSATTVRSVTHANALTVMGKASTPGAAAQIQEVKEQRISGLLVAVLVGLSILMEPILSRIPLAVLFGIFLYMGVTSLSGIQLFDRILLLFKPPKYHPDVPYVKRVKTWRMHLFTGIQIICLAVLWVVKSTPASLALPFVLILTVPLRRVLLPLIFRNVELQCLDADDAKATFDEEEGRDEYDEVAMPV
Description: Cet effet a été étudié selon la méthodologie décrite par G. GARAY et coll. dans Naunyn-Schmidberg's Arch. Pharmakol. 334 (1986) 202-209 et dans Bioch. Pharm. 33 (1984) 2013-2020.

lipoxygénase de soja = target: T2, lipoxygénase de soja (Glycine max, UniProt P08170); assay: Anti-lipoxygenase action on soybean lipoxygenase; type: biochemical
T2 sequence (P08170 1-839): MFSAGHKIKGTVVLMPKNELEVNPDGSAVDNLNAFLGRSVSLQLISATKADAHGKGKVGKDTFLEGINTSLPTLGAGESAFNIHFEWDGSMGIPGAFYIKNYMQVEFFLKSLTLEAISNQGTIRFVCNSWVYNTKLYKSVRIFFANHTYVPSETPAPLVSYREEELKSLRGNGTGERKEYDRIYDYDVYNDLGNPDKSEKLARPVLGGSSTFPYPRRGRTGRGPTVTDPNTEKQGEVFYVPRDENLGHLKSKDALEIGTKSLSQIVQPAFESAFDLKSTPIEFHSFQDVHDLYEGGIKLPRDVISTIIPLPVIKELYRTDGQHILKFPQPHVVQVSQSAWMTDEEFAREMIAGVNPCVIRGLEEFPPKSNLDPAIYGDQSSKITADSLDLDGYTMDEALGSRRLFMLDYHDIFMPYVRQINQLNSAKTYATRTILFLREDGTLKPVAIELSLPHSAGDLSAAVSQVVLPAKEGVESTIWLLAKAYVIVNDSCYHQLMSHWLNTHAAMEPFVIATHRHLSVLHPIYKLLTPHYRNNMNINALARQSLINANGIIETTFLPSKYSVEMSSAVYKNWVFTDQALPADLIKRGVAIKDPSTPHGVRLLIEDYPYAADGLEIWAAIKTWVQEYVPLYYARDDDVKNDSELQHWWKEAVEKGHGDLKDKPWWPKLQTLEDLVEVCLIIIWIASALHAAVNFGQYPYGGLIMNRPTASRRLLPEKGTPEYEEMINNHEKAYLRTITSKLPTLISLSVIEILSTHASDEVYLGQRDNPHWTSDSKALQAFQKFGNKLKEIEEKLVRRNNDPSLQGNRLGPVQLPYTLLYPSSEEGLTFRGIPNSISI
Description: L'action anti-lipoxygénase a été étudiée sur la lipoxygénase de soja selon la méthode décrite par W.L SMITH et W.E LANDS (J. Biol. Chem. 247 (1972) 1038-1047)

pIC50 (ECHANGEUR D'ANIONS): 6.10 | ACTIVITE ANTI-LIPOXYGENASE IC 50 (lipoxygénase de soja): Inactif
Structure (SMILES): Cc1ccc(O)c(CCOc2ccccc2)c1 [ex 36]
minimal effective dose (RAT): 100 mg/kg | minimal effective dose (SOURIS): 100 mg/kg | Variation de l'effet anti-hyper-tenseur 24 heures après produit [1]: Non actif | M à 50 [2]: inactif
